Laboratory results published in patent US20230293629A1, “METHODS FOR ATTENUATING RELEASE OF INFLAMMATORY MEDIATORS AND PEPTIDES USEFUL THEREIN” (BIOMARCK PHARMACEUTICALS LTD., priority 2006, published 2023).
Where a SMILES comes first, the peptide text is derived from it. Where no end group is shown, it is not given here. The star is where a group is joined. Myristoyl = CCCCCCCCCCCCCC(=O)*

What was measured:
HL-60 clone 15 cells = assay: PMA-stimulated EPO release from HL-60 clone 15 cells; format: cell-based, human; conditions: 50 μM test peptide, two hour incubation with 100 nM PMA; HL-60 clone 15 cells
Protocol: (§1) Three types of human leukocyte cell lines, specifically the promyelocytic cell line HL-60 clone 15, the monocytic cell line U937, and the lymphocyte natural killer cell line NK-92 were purchased from American Type Culture Collection (ATCC; Rockville, MD). HL-60 clone 15 cells (ATCC CRL-1964) were maintained in medium consisting of RPMI 1640 with L-glutamine supplemented with 10% heat-inactivated fetal bovine serum (Gibco; Invitrogen Co., Carlsbad, CA), 50 IU/ml penicillin, 50 μg/mL streptomycin, and 25 mM HEPES buffer, pH 7.8, at 37° C. in an atmosphere containing 5% CO2. Final differentiation to an eosinophil-like phenotype was initiated by culturing cells at 5×10^5 cells/ml in the above medium containing 0.5 mM butyric acid (Sigma-Aldrich Co.) for 5 days as previously described (Tiffany H L, Li F, Rosenberg H F. Hyperglycosylation of eosinophil ribonucleases in a promyelocytic leukemia cell line and in differentiated peripheral blood progenitor cells. J Leukoc Biol 1995; 58:49-54; Tiffany H L, Alkhatib G, Combadiere C, Berger E A, Murphy P M. CC chemokine receptors 1 and 3 are differentially regulated by IL-5 during maturation of eosinophilic HL-60 cells. J Immunol 1998; 160:1385-1392). U937 cells (ATCC CRL-1593.2) were grown at 37° C. in an atmosphere of 5% CO2 in complete medium consisting of RPMI 1640 with L-glutamine supplemented with 10% FBS, 50 IU/ml penicillin, and 50 μg/mL streptomycin. NK-92 cells (ATCC CRL-2407) were maintained in alpha-MEM medium (Sigma-Aldrich Co.) supplemented with 20% FBS, 100 U/ml of interleukin-2 (IL-2) (Chemicon International, Inc., Temecula, CA), 5×10^−5 M of 2-mercaptoethanol, 50 IU/mL penicillin, and 50 μg/ml streptomycin at 37° C. in an atmosphere containing 5% CO2. Cell morphology was judged by assessment of Wright-Giemsa-stained cells. Viability of cells harvested for experiments was assessed by trypan blue exclusion and populations of cells with viability >95% were used.
(§2) HL-60 clone 15, U937, and NK-92 cells were washed and resuspended at 2.5×10^6 cells/ml in phenol red-free RPMI-1640 (Cellgro; Mediatech, Inc.) for all degranulation assays. Aliquots of cells in 15 ml tubes were preincubated with indicated concentrations of MANS, RNS, or a test peptide for 10 min at 37° C. The cells then were stimulated with PMA for up to 2 hr. A control reference (PMA control reference) was established for each cell type using HL-60 clone 15, U937, and NK-92 cells, respectively, which were washed and resuspended at 2.5×10^6 cells/ml in phenol red-free RPMI-1640 and stimulated with PMA but in the absence of MANS, RNS, or a test peptide for the same time periods. The reaction was terminated by placing tubes on ice and centrifuging cells at 400 g for 5 min at 4° C.
(§3) For measurements of released MPO from neutrophils and released lysozyme from U937 cells, we were able to quantify secretion by using as standards human MPO and egg white […], respectively. For released EPO from HL-60 clone 15 cells and for released granzyme from NK-92 cells, no standards were available to use for quantification. […] To measure intracellular EPO in HL-60 clone 15 cells and intracellular granzyme in NK-92 cells, appropriate aliquots of 0.1% triton X-100-lysed cells were taken for quantification of intracellular granule proteins as described below. All treatments were expressed as percentage of control to minimize variability between cultures.
EPO activity released by HL-60 clone 15 cells was assayed using TMB according to a previously established technique (Lacy P, Mahmudi-Azer S, Bablitz B, Hagen S C, Velazquez J R, Man S F, Moqbel R. Rapid mobilization of intracellularly stored RANTES in response to interferon-gamma in human eosinophils. Blood 1999; 94:23-32). Thus, 100 μL of TMB substrate solution was added to 50 μL=microliters) of sample in a 96-well microplate and incubated at room temperature for 15 min (min=minutes). […]

U937 cells = assay: PMA-stimulated lysozyme secretion by U937 cells; format: cell-based, human; conditions: 50 μM test peptide, two hour incubation with 100 nM PMA; U937 cells
Protocol: as §1, §2, §3
Lysozyme secreted by U937 cells was measured using a spectrophotometric assay as described previously (Balboa M A, Saez Y, Balsinde J. Calcium-independent phospholipase A2 is required for lysozyme secretion in U937 promonocytes. J Immunol 2003; 170:5276-5280) with slight modification. Thus, 100 μL of sample was mixed with 100 μL of a Micrococcus lysodeikticus (Sigma-Aldrich Co.) suspension (0.3 mg/ml in 0.1 M sodium phosphate buffer, pH 7.0) in a 96-well microplate. The decrease in absorbance at 450 nm was measured at room temperature. […]

[1] = Qualitative solubility of peptides in 0.5 N saline, pH 6.5

Row | Compound | % Inhibition EPO (HL-60 clone 15 cells) [%] | % Inhibition Lysozyme (U937 cells) [%] | solubility [1] [mg/mL]
1 | CCCCCCCCCCCCCC(=O)NCC(=O)N[C@@H](C)C(=O)N[C@@H](CCC(N)=O)C(=O)N[C@@H](Cc1ccccc1)C(=O)N[C@@H](CO)C(=O)N[C@@H](CCCCN)C(=O)N[C@H](C(=O)N[C@@H](C)C(=O)N[C@@H](C)C(=O)N[C@@H](CCCCN)C(=O)NCC(=O)N[C@@H](CCC(=O)O)C(=O)N[C@@H](C)C(=O)N[C@@H](C)C(=O)N[C@@H](C)C(=O)N[C@@H](CCC(=O)O)C(=O)O)[C@@H](C)O [MA-GAQFSKTAAKGEAAAE, GAQFSKTAAKGEAAAE] (Myristoyl-GAQFSKTAAKGEAAAE-OH; C-terminus assumed) | 30.3 | 99 | > 2
2 | Ac-GAQFSKTAAAGE [Ac-GAQFSKTAAAGE, GAQFSKTAAAGE] | 55.8 | 37.2 | > 50
3 | CCCCCCCCCCCCCC(=O)N[C@@H](C)C(=O)N[C@@H](C)C(=O)N[C@@H](CCCCN)C(=O)NCC(=O)N[C@@H](CCC(=O)O)C(=O)N[C@@H](C)C(=O)O [MA-AAKGEA, AAKGEA] (Myristoyl-AAKGEA-OH; C-terminus assumed) | 31.4 | 28.6 | < 1
4 | Ac-GAQFSKTAA [Ac-GAQFSKTAA, GAQFSKTAA] | 33.3 | 28.9 | > 20
5 | CCCCCCCCCCCCCC(=O)NCC(=O)N[C@@H](C)C(=O)N[C@@H](CCC(N)=O)C(=O)N[C@@H](Cc1ccccc1)C(=O)N[C@@H](CO)C(=O)N[C@@H](CCCCN)C(=O)N[C@H](C(=O)N[C@@H](C)C(=O)N[C@@H](C)C(=O)N[C@@H](CCCCN)C(=O)NCC(=O)N[C@@H](CCC(=O)O)C(=O)N[C@@H](C)C(=O)N[C@@H](C)C(=O)N[C@@H](C)C(=O)N[C@@H](CCC(=O)O)C(=O)N[C@@H](CCCNC(=N)N)C(=O)N1CCC[C@H]1C(=O)NCC(=O)N[C@@H](CCC(=O)O)C(=O)O)[C@@H](C)O (Myristoyl-GAQFSKTAAKGEAAAERPGE-OH; C-terminus assumed) | 33.6 | 99 | –
6 | Ac-GAQFSKTAAA [Ac-GAQFSKTAAA, GAQFSKTAAA] | 55.2 | 28.3 | > 100
7 | Ac-AQFSKTAAKGE-NH2 [Ac-AQFSKTAAKGE-NH2, AQFSKTAAKGE] | 42.8 | 51.8 | > 90
8 | Ac-GAQFSATAAA [Ac-GAQFSATAAA, GAQFSATAAA] | 35.7 | 3.2 | < 10
9 | Ac-GAQFSKTA [Ac-GAQFSKTA, GAQFSKTA] | 0 | 0 | > 200
10 | CCCCCCCCCCCCCC(=O)N[C@@H](C)C(=O)N[C@@H](C)C(=O)N[C@@H](C)C(=O)N[C@@H](CCC(=O)O)C(=O)N[C@@H](CCCNC(=N)N)C(=O)N1CCC[C@H]1C(=O)NCC(=O)N[C@@H](CCC(=O)O)C(=O)N[C@@H](C)C(=O)N[C@@H](C)C(=O)N[C@H](C(=O)N[C@@H](C)C(=O)O)C(C)C [MA-AAAERPGEAAVA, AAAERPGEAAVA] (Myristoyl-AAAERPGEAAVA-OH; C-terminus assumed) | 21.6 | 98 | < 20
11 | Ac-GAQFSKTAAKGEAAAERPGE | 48.8 | 0.0 | –
12 | Ac-GAQFSKTAAKGA [Ac-GAQFSKTAAKGA, GAQFSKTAAKGA] | 40.9 | 24.1 | > 50
13 | Ac-SKTAAKGE-NH2 [Ac-SKTAAKGE-NH2, SKTAAKGE] | 42.2 | 0 | > 200
14 | CCCCCCCCCCCCCC(=O)N[C@@H](C)C(=O)N[C@@H](CCCCN)C(=O)NCC(=O)N[C@@H](CCC(=O)O)C(=O)N[C@@H](C)C(=O)N[C@@H](C)C(=O)N[C@@H](C)C(=O)N[C@@H](CCC(=O)O)C(=O)N[C@@H](CCCNC(=N)N)C(=O)N1CCC[C@H]1C(=O)NCC(=O)N[C@@H](CCC(=O)O)C(=O)N[C@@H](C)C(=O)N[C@@H](C)C(=O)N[C@H](C(=O)N[C@@H](C)C(=O)O)C(C)C [MA-AKGEAAAERPGEAAVA, AKGEAAAERPGEAAVA] (Myristoyl-AKGEAAAERPGEAAVA-OH; C-terminus assumed) | 18.1 | 98 | > 80
15 | CCCCCCCCCCCCCC(=O)N[C@@H](CCCNC(=N)N)C(=O)N1CCC[C@H]1C(=O)NCC(=O)N[C@@H](CCC(=O)O)C(=O)N[C@@H](C)C(=O)N[C@@H](C)C(=O)N[C@H](C(=O)N[C@@H](C)C(=O)O)C(C)C [MA-RPGEAAVA, RPGEAAVA] (Myristoyl-RPGEAAVA-OH; C-terminus assumed) | 0 | 99 | –
16 | Ac-GAQFSKTAAKGE [Ac-GAQFSKTAAKGE, GAQFSKTAAKGE] | 46.7 | 43.3 | > 100
17 | Ac-AAAERPGEAAVA [Ac-AAAERPGEAAVA, AAAERPGEAAVA] | 51.2 | 29.5 | –
18 | Ac-RPGEAAVA [Ac-RPGEAAVA, RPGEAAVA] | 45.8 | 0.0 | –
19 | Ac-GAQFSKTAAKGEAAAE [Ac-GAQFSKTAAKGEAAAE, GAQFSKTAAKGEAAAE] | 56.6 | 8.4 | –
20 | Ac-KTAAKGE-NH2 [Ac-KTAAKGE-NH2, KTAAKGE] | 0 | 24.3 | > 200
21 | CCCCCCCCCCCCCC(=O)NCC(=O)N[C@@H](C)C(=O)N[C@@H](CCC(N)=O)C(=O)N[C@@H](Cc1ccccc1)C(=O)N[C@@H](CO)C(=O)N[C@@H](CCCCN)C(=O)N[C@H](C(=O)N[C@@H](C)C(=O)N[C@@H](C)C(=O)N[C@@H](CCCCN)C(=O)O)[C@@H](C)O [MA-GAQFSKTAAK, GAQFSKTAAK] (Myristoyl-GAQFSKTAAK-OH; C-terminus assumed) | 37.4 | 56.6 | > 10
22 | Ac-AKGEAAAERPGEAAVA [Ac-AKGEAAAERPGEAAVA, AKGEAAAERPGEAAVA] | 72.3 | 34.3 | –
23 | Ac-TAAKGEAA [Ac-TAAKGEAA, TAAKGEAA] | 40.4 | 0.5 | > 230
24 | Ac-QFSKTAAKGE-NH2 [Ac-QFSKTAAKGE-NH2, QFSKTAAKGE] | 15.7 | 60.7 | > 150
25 | Ac-FSKTAAKGE-NH2 [Ac-FSKTAAKGE-NH2, FSKTAAKGE] | 25.3 | 56.7 | > 100
26 | Ac-AAKGEA [Ac-AAKGEA, AAKGEA] | 10.6 | 9.2 | > 150
